Source: US20100298141A1, “SUBSTITUTED PYRIDINE N-OXIDE HERBICIDES” (E. I. DU PONT DE NEMOURS AND COMPANY, priority 2007, published 2010)

Key:
pigweed = assay: Test C pre-/postemergence test; assay type: in vivo, Amaranthus retroflexus; conditions: for Plant response rating, Pigweed: 31 g ai/ha, scale 0 to 100 (0 no effect, 100 complete control)
How it was run: (§1)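 Compounds in a non-phytotoxic solvent with surfactant applied preemergence to seeded pots and, at the same time, postemergence to plants 2–18 cm tall (1- to 4-leaf stage). Paddy tests: pots flooded to 3 cm, compound applied into the water, depth held throughout.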

Goosegrass = assay: Test C pre-/postemergence test; assay type: in vivo, Eleusin indica; conditions: for Plant response rating, Goosegrass: 31 g ai/ha, scale 0 to 100 (0 no effect, 100 complete control)
How it was run: as §1

Italian ryegrass = assay: Test C pre-/postemergence test; assay type: in vivo, Lolium multiflorum; conditions: for Plant response rating, Ryegrass, Italian: 31 g ai/ha, scale 0 to 100 (0 no effect, 100 complete control)
How it was run: as §1

cocklebur = assay: Test C pre-/postemergence test; assay type: in vivo, Xanthium strumarium; conditions: for Plant response rating, Cocklebur: 31 g ai/ha, scale 0 to 100 (0 no effect, 100 complete control)
How it was run: as §1

soybean = assay: Test C pre-/postemergence test; assay type: in vivo, Glycine max; conditions: for Plant response rating, Soybean: 31 g ai/ha, scale 0 to 100 (0 no effect, 100 complete control)
How it was run: as §1

kochia = assay: Test C pre-/postemergence test; assay type: in vivo, Kochia scoparia; conditions: for Plant response rating, Kochia: 31 g ai/ha, scale 0 to 100 (0 no effect, 100 complete control)
How it was run: as §1

giant foxtail = assay: Test A pre-/postemergence greenhouse test; assay type: in vivo, Setaria faberi; conditions: for Plant response rating, Foxtail, Giant: 0 to 100 scale where 0 is no effect and 100 is complete control; for Foxtail, Giant plant response rating: 0 to 100 scale
How it was run: (§2)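 Visual injury ratings, made relative to untreated controls roughly ten days after treatment, cover both preemergence and postemergence application. Compounds in a surfactant-containing non-phytotoxic solvent were sprayed onto the soil surface after sowing and, simultaneously, onto young plants at the one- to two-leaf stage.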

barnyardgrass [1] = assay: Test C flooded paddy test; assay type: in vivo, Echinochloa crus-galli; conditions: Flood
How it was run: (§3)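 Ratings were visual and made relative to untreated controls after 13 to 15 greenhouse days.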

lambsquarters = assay: Test C pre-/postemergence test; assay type: in vivo, Chenopodium album; conditions: for Plant response rating, Lambsquarters: 31 g ai/ha, scale 0 to 100 (0 no effect, 100 complete control)
How it was run: as §1

morningglory = assay: Test A pre-/postemergence greenhouse test; assay type: in vivo, Ipomoea spp.; conditions: for Plant response rating, Morningglory: 0 to 100 scale where 0 is no effect and 100 is complete control; for Morningglory plant response rating: 0 to 100 scale
How it was run: as §2

barnyardgrass [2] = assay: Test A pre-/postemergence greenhouse test; assay type: in vivo, Echinochloa crus-galli; conditions: for Plant response rating, Barnyardgrass: 0 to 100 scale where 0 is no effect and 100 is complete control; for Barnyardgrass plant response rating: 0 to 100 scale
How it was run: as §2

umbrella sedge = assay: Test C flooded paddy test; assay type: in vivo, Cyperus difformis; conditions: Flood
How it was run: as §3

Surinam grass = assay: Test C pre-/postemergence test; assay type: in vivo, Brachiaria decumbens; conditions: for Plant response rating, Surinam Grass: 31 g ai/ha, scale 0 to 100 (0 no effect, 100 complete control)
How it was run: as §1

bermudagrass = assay: Test C pre-/postemergence test; assay type: in vivo, Cynodon dactylon; conditions: for Plant response rating, Bermudagrass: 31 g ai/ha
How it was run: as §1

crabgrass [3] = assay: Test C pre-/postemergence test; assay type: in vivo, Digitaria sanguinalis; conditions: for Plant response rating, Crabgrass, Large: 31 g ai/ha, scale 0 to 100 (0 no effect, 100 complete control)
How it was run: as §1

crabgrass [4] = assay: Test A pre-/postemergence greenhouse test; assay type: in vivo, Digitaria sanguinalis; conditions: for Plant response rating, Crabgrass, Large: 0 to 100 scale where 0 is no effect and 100 is complete control; for Crabgrass, Large plant response rating: 0 to 100 scale
How it was run: as §2

[5] = test system: common (oilseed) sunflower; assay: Test C pre-/postemergence test; assay type: in vivo, Helianthus annuus; conditions: for Plant response rating, Sunflower: 31 g ai/ha, scale 0 to 100 (0 no effect, 100 complete control)
How it was run: as §1

[6] = 62 g ai/ha, Preemergence, scale 0 to 100
[7] = 125 g ai/ha, preemergence, scale 0 (no effect) to 100 (complete control)
[8] = preemergence, 250 g ai/ha, scale 0 (no effect) to 100 (complete control)
[9] = Postemergence, 500 g ai/ha, 0 is no effect, 100 is complete control
[10] = Preemergence, 125 g ai/ha, 0 no effect, 100 complete control
[11] = 62 g ai/ha, scale 0 to 100, 0 no effect, 100 complete control, 13 to 15 days
[12] = 250 g ai/ha, scale 0 to 100, 0 no effect, 100 complete control, 13 to 15 days
[13] = 62 g ai/ha, Preemergence, scale 0 to 100 (0 no effect, 100 complete control)
[14] = Preemergence, scale 0 to 100 (0 no effect, 100 complete control)
[15] = preemergence, 125 g ai/ha, scale 0 (no effect) to 100 (complete control)
[16] = Postemergence, 125 g ai/ha, 0 is no effect, 100 is complete control
[17] = 31 g ai/ha, scale 0 to 100 (0 no effect, 100 complete control)
[18] = 125 g ai/ha, scale 0 to 100, 0 no effect, 100 complete control, 13 to 15 days

CC(c1c(C(F)(F)F)nn(CC(F)(F)F)c1Cl)[S+]([O-])c1cccc[n+]1[O-] (stereo not shown) [Compound 46]
Pigweed plant response rating (pigweed; [6]): 90
Pigweed plant response rating (pigweed; [7]): 100
Plant response rating, Pigweed (pigweed; Preemergence): 0
Pigweed plant response rating (pigweed; [8]): 100
Goosegrass plant response rating (Goosegrass; [6]): 100
Goosegrass plant response rating (Goosegrass; [7]): 100
Plant response rating, Goosegrass (Goosegrass; Preemergence): 98
Goosegrass plant response rating (Goosegrass; [8]): 100
Ryegrass, Italian plant response rating (Italian ryegrass; [6]): 55
Ryegrass, Italian plant response rating (Italian ryegrass; [7]): 80
Plant response rating, Ryegrass, Italian (Italian ryegrass; Preemergence): 0
Ryegrass, Italian plant response rating (Italian ryegrass; [8]): 100
Cocklebur plant response rating (cocklebur; [6]): 0
Cocklebur plant response rating (cocklebur; [7]): 0
Plant response rating, Cocklebur (cocklebur; Preemergence): 0
Cocklebur plant response rating (cocklebur; [8]): 10
Soybean plant response rating (soybean; [6]): 0
Soybean plant response rating (soybean; [7]): 0
Plant response rating, Soybean (soybean; Preemergence): 0
Soybean plant response rating (soybean; [8]): 25
Kochia plant response rating (kochia; [6]): 50
Kochia plant response rating (kochia; [7]): 100
Plant response rating, Kochia (kochia; Preemergence): 50
Kochia plant response rating (kochia; [8]): 100
Plant response rating, Foxtail, Giant (giant foxtail; Postemergence, 125 g ai/ha): 70
Foxtail, Giant plant response rating (giant foxtail; [9]): 80
Foxtail, Giant plant response rating (giant foxtail; [10]): 90
Plant response rating, Foxtail, Giant (giant foxtail; Preemergence, 500 g ai/ha): 100
Plant response rating, Barnyardgrass (barnyardgrass [1]; [11]): 10
Plant response rating, Barnyardgrass (barnyardgrass [1]; [12]): 60
Lambsquarters plant response rating (lambsquarters; [6]): 90
Lambsquarters plant response rating (lambsquarters; [7]): 100
Plant response rating, Lambsquarters (lambsquarters; Preemergence): 0
Lambsquarters plant response rating (lambsquarters; [8]): 100
Plant response rating, Morningglory (morningglory; Postemergence, 125 g ai/ha): 0
Morningglory plant response rating (morningglory; [9]): 60
Morningglory plant response rating (morningglory; [10]): 30
Plant response rating, Morningglory (morningglory; Preemergence, 500 g ai/ha): 90
Plant response rating, Barnyardgrass (barnyardgrass [2]; Postemergence, 125 g ai/ha): 70
Barnyardgrass plant response rating (barnyardgrass [2]; [9]): 80
Barnyardgrass plant response rating (barnyardgrass [2]; [10]): 80
Plant response rating, Barnyardgrass (barnyardgrass [2]; Preemergence, 500 g ai/ha): 100
Plant response rating, Sedge, Umbrella (umbrella sedge; [12]): 70
Surinam Grass plant response rating (Surinam grass; [6]): 85
Surinam Grass plant response rating (Surinam grass; [7]): 100
Plant response rating, Surinam Grass (Surinam grass; Preemergence): 85
Surinam Grass plant response rating (Surinam grass; [8]): 100
Bermudagrass plant response rating (bermudagrass; [13]): 100
Bermudagrass plant response rating (bermudagrass; [7]): 100
Plant response rating, Bermudagrass (bermudagrass; [14]): 100
Bermudagrass plant response rating (bermudagrass; [8]): 100
Crabgrass, Large plant response rating (crabgrass [3]; [6]): 100
Crabgrass, Large plant response rating (crabgrass [3]; [7]): 100
Plant response rating, Crabgrass, Large (crabgrass [3]; Preemergence): 100
Crabgrass, Large plant response rating (crabgrass [3]; [8]): 100
Plant response rating, Crabgrass, Large (crabgrass [4]; Postemergence, 125 g ai/ha): 70
Crabgrass, Large plant response rating (crabgrass [4]; [9]): 80
Crabgrass, Large plant response rating (crabgrass [4]; [10]): 70
Plant response rating, Crabgrass, Large (crabgrass [4]; Preemergence, 500 g ai/ha): 100
Sunflower plant response rating [5, 6]: 0
Sunflower plant response rating [5, 7]: 0
Plant response rating, Sunflower ([5]; Preemergence): 0
Sunflower plant response rating [5, 8]: 40

Cc1cc[n+]([O-])c(S(=O)(=O)C(Cl)c2c(C(F)(F)F)nn(C)c2Cl)c1 (racemic) [Compound 22]
Pigweed plant response rating (pigweed; [6]): 100
Plant response rating, Pigweed (pigweed; Preemergence): 100
Goosegrass plant response rating (Goosegrass; [6]): 100
Plant response rating, Goosegrass (Goosegrass; Preemergence): 100
Plant response rating (0 to 100), Goosegrass (Goosegrass; Preemergence, 250 g ai/ha): 100
Ryegrass, Italian plant response rating (Italian ryegrass; [6]): 40
Plant response rating, Ryegrass, Italian (Italian ryegrass; Preemergence): 0
Cocklebur plant response rating (cocklebur; [6]): 0
Plant response rating, Cocklebur (cocklebur; Preemergence): 0
Plant response rating (0 to 100), Cocklebur (cocklebur; Preemergence, 250 g ai/ha): 0
Cocklebur plant response rating (cocklebur; [15]): 0
Soybean plant response rating (soybean; [6]): 0
Plant response rating, Soybean (soybean; Preemergence): 0
Kochia plant response rating (kochia; [6]): 0
Plant response rating, Kochia (kochia; Preemergence): 0
Foxtail, Giant plant response rating (giant foxtail; [16]): 50
Foxtail, Giant plant response rating (giant foxtail; [9]): 80
Foxtail, Giant plant response rating (giant foxtail; [10]): 100
Plant response rating, Foxtail, Giant (giant foxtail; Preemergence, 500 g ai/ha): 100
Plant response rating, Barnyardgrass (barnyardgrass [1]; [17]): 10
Plant response rating, Barnyardgrass (barnyardgrass [1]; [11]): 20
Plant response rating, Barnyardgrass (barnyardgrass [1]; [18]): 80
Plant response rating, Barnyardgrass (barnyardgrass [1]; 250 g ai/ha, scale 0 to 100 (0 no effect, 100 complete control)): 85
Lambsquarters plant response rating (lambsquarters; [6]): 100
Plant response rating, Lambsquarters (lambsquarters; Preemergence): 0
Morningglory plant response rating (morningglory; [16]): 20
Morningglory plant response rating (morningglory; [9]): 40
Morningglory plant response rating (morningglory; [10]): 70
Plant response rating, Morningglory (morningglory; Preemergence, 500 g ai/ha): 90
Barnyardgrass plant response rating (barnyardgrass [2]; [16]): 40
Barnyardgrass plant response rating (barnyardgrass [2]; [9]): 80
Barnyardgrass plant response rating (barnyardgrass [2]; [10]): 90
Plant response rating, Barnyardgrass (barnyardgrass [2]; Preemergence, 500 g ai/ha): 100
Plant response rating, Sedge, Umbrella (umbrella sedge; [17]): 60
Plant response rating, Sedge, Umbrella (umbrella sedge; [11]): 85
Plant response rating, Sedge, Umbrella (umbrella sedge; [18]): 95
Plant response rating, Sedge, Umbrella (umbrella sedge; [12]): 95
Surinam Grass plant response rating (Surinam grass; [6]): 60
Plant response rating, Surinam Grass (Surinam grass; Preemergence): 10
Bermudagrass plant response rating (bermudagrass; [13]): 100
Plant response rating, Bermudagrass (bermudagrass; [14]): 70
Plant response rating (0 to 100), Bermudagrass (bermudagrass; Preemergence, 250 g ai/ha): 100
Bermudagrass plant response rating (bermudagrass; [15]): 100
Crabgrass, Large plant response rating (crabgrass [3]; [6]): 100
Plant response rating, Crabgrass, Large (crabgrass [3]; Preemergence): 98
Plant response rating (0 to 100), Crabgrass, Large (crabgrass [3]; Preemergence, 250 g ai/ha): 100
Crabgrass, Large plant response rating (crabgrass [4]; [16]): 40
Crabgrass, Large plant response rating (crabgrass [4]; [9]): 80
Crabgrass, Large plant response rating (crabgrass [4]; [10]): 90
Plant response rating, Crabgrass, Large (crabgrass [4]; Preemergence, 500 g ai/ha): 90
Sunflower plant response rating [5, 6]: 0
Plant response rating, Sunflower ([5]; Preemergence): 0
